{"source": "patent US20060069132A1", "about": "“Azolecarboxamide herbicides” (priority 2004, published 2006)", "key": {"pigweed": {"test_system": "pigweed", "experiment": "Test C pre-/postemergence herbicide test", "type": "in vivo, Amaranthus retroflexus", "outline": "(§1)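 Seeds were planted and sprayed preemergence with test chemicals in a non-phytotoxic solvent mixture containing surfactant; postemergence treatments went onto plants 2 to 18 cm tall (1- to 4-leaf stage). After 12 to 14 days in a greenhouse, injury was rated visually against untreated controls on a 0–100 scale.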"}, "common ragweed": {"test_system": "common ragweed", "experiment": "Test C pre-/postemergence herbicide test", "type": "in vivo, Ambrosia elatior", "design": "key to Plant response rating, Ragweed: 0 = no effect, 100 = complete control", "outline": "as §1"}, "large crabgrass": {"test_system": "large crabgrass", "experiment": "Test C pre-/postemergence herbicide test", "type": "in vivo, Digitaria sanguinalis", "outline": "as §1"}, "[1]": {"test_system": "common (oilseed) sunflower", "experiment": "Test C pre-/postemergence herbicide test", "type": "in vivo, Helianthus annuus", "outline": "as §1"}, "lambsquarters": {"test_system": "lambsquarters", "experiment": "Test C pre-/postemergence herbicide test", "type": "in vivo, Chenopodium album", "outline": "as §1"}, "ducksalad": {"test_system": "ducksalad", "experiment": "Test C flooded paddy test", "type": "in vivo, Heteranthera limosa"}, "[2]": {"conditions": "125 g ai/ha, scale 0 (no effect) to 100 (complete control), visual, 12 to 14 days, preemergence"}, "[3]": {"conditions": "250 g ai/ha, scale 0 to 100 (0 no effect, 100 complete control), visual, 12 to 14 days, preemergence"}, "[4]": {"conditions": "Preemergence, 500 g ai/ha, scale 0 to 100, 0 no effect, 100 complete control"}}, "note": "Like-named read-outs stand apart in the source and are kept apart here.", "data": [{"molecule": "CCN1CCc2c(NC(=O)c3cc(C(C)(C)C)nn3CC)cccc2C1=O", "note": "[Compound 63]", "values": [{"measurement": "Plant response rating (0 = no effect, 100 = complete control), Pigweed", "setting": "pigweed; 62 g ai/ha, preemergence", "value": 100}, {"measurement": "Plant response rating, Pigweed", "setting": "pigweed; [2]", "value": 100}, {"measurement": "Plant response rating, Pigweed", "setting": "pigweed; [3]", "value": 100}, {"measurement": "Pigweed plant response rating", "setting": "pigweed; [4]", "value": 100}, {"measurement": "Plant response rating (0 = no effect, 100 = complete control), Ragweed", "setting": "common ragweed; 62 g ai/ha, preemergence", "value": 0}, {"measurement": "Plant response rating, Ragweed", "setting": "common ragweed; [2]", "value": 0}, {"measurement": "Plant response rating, Ragweed", "setting": "common ragweed; [3]", "value": 10}, {"measurement": "Ragweed plant response rating", "setting": "common ragweed; [4]", "value": 95}, {"measurement": "Plant response rating (0 = no effect, 100 = complete control), Crabgrass, Large", "setting": "large crabgrass; 62 g ai/ha, preemergence", "value": 10}, {"measurement": "Plant response rating, Crabgrass, Large", "setting": "large crabgrass; [2]", "value": 85}, {"measurement": "Plant response rating, Crabgrass, Large", "setting": "large crabgrass; [3]", "value": 90}, {"measurement": "Crabgrass, Large plant response rating", "setting": "large crabgrass; [4]", "value": 100}, {"measurement": "Plant response rating (0 = no effect, 100 = complete control), Sunflower", "setting": "[1]; 62 g ai/ha, preemergence", "value": 0}, {"measurement": "Plant response rating, Sunflower", "setting": "[1]; [2]", "value": 0}, {"measurement": "Plant response rating, Sunflower", "setting": "[1]; [3]", "value": 0}, {"measurement": "Sunflower plant response rating", "setting": "[1]; [4]", "value": 30}, {"measurement": "Plant response rating (0 = no effect, 100 = complete control), Lambsquarters", "setting": "lambsquarters; 62 g ai/ha, preemergence", "value": 30}, {"measurement": "Plant response rating, Lambsquarters", "setting": "lambsquarters; [2]", "value": 95}, {"measurement": "Plant response rating, Lambsquarters", "setting": "lambsquarters; [3]", "value": 100}, {"measurement": "Lambsquarters plant response rating", "setting": "lambsquarters; [4]", "value": 100}, {"measurement": "Ducksalad plant response rating", "setting": "ducksalad; 62 g ai/ha, scale 0 to 100 (0 no effect, 100 complete control)", "value": 0}, {"measurement": "Ducksalad plant response rating", "setting": "ducksalad; 125 g ai/ha, scale of 0 to 100, 0 is no effect, 100 is complete control", "value": 50}, {"measurement": "Ducksalad plant response rating", "setting": "ducksalad; 250 g ai/ha, scale of 0 to 100, 0 is no effect, 100 is complete control", "value": 70}, {"measurement": "Plant response rating, Ducksalad", "setting": "ducksalad; 500 g ai/ha, visual rating after 12 to 14 days, scale 0 to 100 (0 no effect, 100 complete control)", "value": 85}]}, {"molecule": "CCOC(=O)c1cccc(NC(=O)c2cc(C(C)(C)C)nn2CC)c1", "note": "[Compound 80, ethyl 3-[[[3-(1,1-dimethylethyl)-1-ethyl-1H-pyrazol-5-yl]carbonyl]-amino]benzoate]", "values": [{"measurement": "Plant response rating (0 = no effect, 100 = complete control), Pigweed", "setting": "pigweed; 62 g ai/ha, preemergence", "value": 40}, {"measurement": "pest or weed control at 250 g/ha", "setting": "pigweed; Amaranthus retroflexus, post-emergence, Postemergence, 250 g ai/ha, scale 0 to 100, 0 no effect, 100 complete control, read-out: Plant response rating, Pigweed", "value": 100, "unit": "%"}, {"measurement": "pest or weed control at 125 g/ha", "setting": "pigweed; Amaranthus retroflexus, post-emergence, postemergence, 125 g ai/ha, scale 0 to 100, read-out: Plant response rating, Pigweed", "value": 100, "unit": "%"}, {"measurement": "pest or weed control at 62 g/ha", "setting": "pigweed; Amaranthus retroflexus, post-emergence, postemergence, 62 g ai/ha, scale 0 to 100, read-out: Plant response rating, Pigweed", "value": 100, "unit": "%"}, {"measurement": "pest or weed control at 31 g/ha", "setting": "pigweed; Amaranthus retroflexus, pre-emergence, 31 g ai/ha, preemergence, scale 0 to 100, read-out: Plant response rating, Pigweed", "value": 30, "unit": "%"}, {"measurement": "pest or weed control at 125 g/ha", "setting": "pigweed; Amaranthus retroflexus, pre-emergence, 125 g ai/ha, scale 0 (no effect) to 100 (complete control), visual, 12 to 14 days, read-out: Plant response rating, Pigweed", "value": 100, "unit": "%"}, {"measurement": "Plant response rating (0 = no effect, 100 = complete control), Ragweed", "setting": "common ragweed; 62 g ai/ha, preemergence", "value": 0}, {"measurement": "pest or weed control at 250 g/ha", "setting": "common ragweed; Ambrosia artemisiifolia, post-emergence, Postemergence, 250 g ai/ha, scale 0 to 100, 0 no effect, 100 complete control, read-out: Plant response rating, Ragweed", "value": 70, "unit": "%"}, {"measurement": "pest or weed control at 125 g/ha", "setting": "common ragweed; Ambrosia artemisiifolia, post-emergence, postemergence, 125 g ai/ha, scale 0 to 100, read-out: Plant response rating, Ragweed", "value": 70, "unit": "%"}, {"measurement": "pest or weed control at 62 g/ha", "setting": "common ragweed; Ambrosia artemisiifolia, post-emergence, postemergence, 62 g ai/ha, scale 0 to 100, read-out: Plant response rating, Ragweed", "value": 70, "unit": "%"}, {"measurement": "pest or weed control at 31 g/ha", "setting": "common ragweed; Ambrosia artemisiifolia, pre-emergence, 31 g ai/ha, preemergence, scale 0 to 100, read-out: Plant response rating, Ragweed", "value": 0, "unit": "%"}, {"measurement": "pest or weed control at 125 g/ha", "setting": "common ragweed; Ambrosia artemisiifolia, pre-emergence, 125 g ai/ha, scale 0 (no effect) to 100 (complete control), visual, 12 to 14 days, read-out: Plant response rating, Ragweed", "value": 0, "unit": "%"}, {"measurement": "Plant response rating (0 = no effect, 100 = complete control), Crabgrass, Large", "setting": "large crabgrass; 62 g ai/ha, preemergence", "value": 0}, {"measurement": "pest or weed control at 250 g/ha", "setting": "large crabgrass; Digitaria sanguinalis, post-emergence, 312 h, Postemergence, 250 g ai/ha, scale 0 to 100, 0 no effect, 100 complete control, read-out: Plant response rating, Crabgrass, Large", "value": 90, "unit": "%"}, {"measurement": "pest or weed control at 62 g/ha", "setting": "large crabgrass; Digitaria sanguinalis, post-emergence, 312 h, postemergence, 62 g ai/ha, scale 0 to 100, read-out: Plant response rating, Crabgrass, Large", "value": 90, "unit": "%"}, {"measurement": "pest or weed control at 31 g/ha", "setting": "large crabgrass; Digitaria sanguinalis, pre-emergence, 312 h, 31 g ai/ha, preemergence, scale 0 to 100, read-out: Plant response rating, Crabgrass, Large", "value": 0, "unit": "%"}, {"measurement": "pest or weed control at 125 g/ha", "setting": "large crabgrass; Digitaria sanguinalis, pre-emergence, 312 h, 125 g ai/ha, scale 0 (no effect) to 100 (complete control), visual, 12 to 14 days, read-out: Plant response rating, Crabgrass, Large", "value": 10, "unit": "%"}, {"measurement": "pest or weed control at 250 g/ha", "setting": "large crabgrass; Digitaria sanguinalis, pre-emergence, 312 h, 250 g ai/ha, scale 0 to 100 (0 no effect, 100 complete control), visual, 12 to 14 days, read-out: Plant response rating, Crabgrass, Large", "value": 10, "unit": "%"}, {"measurement": "pest or weed control at 31 g/ha", "setting": "[1]; Helianthus annuus, pre-emergence, 31 g ai/ha, preemergence, scale 0 to 100, read-out: Plant response rating, Sunflower", "value": 0, "unit": "%"}, {"measurement": "pest or weed control at 125 g/ha", "setting": "[1]; Helianthus annuus, pre-emergence, 125 g ai/ha, scale 0 (no effect) to 100 (complete control), visual, 12 to 14 days, read-out: Plant response rating, Sunflower", "value": 0, "unit": "%"}, {"measurement": "Plant response rating (0 = no effect, 100 = complete control), Lambsquarters", "setting": "lambsquarters; 62 g ai/ha, preemergence", "value": 0}, {"measurement": "pest or weed control at 250 g/ha", "setting": "lambsquarters; Chenopodium album, post-emergence, Postemergence, 250 g ai/ha, scale 0 to 100, 0 no effect, 100 complete control, read-out: Plant response rating, Lambsquarters", "value": 100, "unit": "%"}, {"measurement": "pest or weed control at 125 g/ha", "setting": "lambsquarters; Chenopodium album, post-emergence, postemergence, 125 g ai/ha, scale 0 to 100, read-out: Plant response rating, Lambsquarters", "value": 100, "unit": "%"}, {"measurement": "pest or weed control at 62 g/ha", "setting": "lambsquarters; Chenopodium album, post-emergence, postemergence, 62 g ai/ha, scale 0 to 100, read-out: Plant response rating, Lambsquarters", "value": 90, "unit": "%"}, {"measurement": "pest or weed control at 31 g/ha", "setting": "lambsquarters; Chenopodium album, pre-emergence, 31 g ai/ha, preemergence, scale 0 to 100, read-out: Plant response rating, Lambsquarters", "value": 0, "unit": "%"}, {"measurement": "pest or weed control at 125 g/ha", "setting": "lambsquarters; Chenopodium album, pre-emergence, 125 g ai/ha, scale 0 (no effect) to 100 (complete control), visual, 12 to 14 days, read-out: Plant response rating, Lambsquarters", "value": 10, "unit": "%"}, {"measurement": "pest or weed control at 62 g/ha", "setting": "ducksalad; Heteranthera limosa, 62 g ai/ha, scale 0 to 100 (0 no effect, 100 complete control), read-out: Ducksalad plant response rating", "value": 20, "unit": "%"}, {"measurement": "pest or weed control at 125 g/ha", "setting": "ducksalad; Heteranthera limosa, 125 g ai/ha, scale of 0 to 100, 0 is no effect, 100 is complete control, read-out: Ducksalad plant response rating", "value": 20, "unit": "%"}, {"measurement": "pest or weed control at 250 g/ha", "setting": "ducksalad; Heteranthera limosa, 250 g ai/ha, scale of 0 to 100, 0 is no effect, 100 is complete control, read-out: Ducksalad plant response rating", "value": 20, "unit": "%"}, {"measurement": "pest or weed control at 500 g/ha", "setting": "ducksalad; Heteranthera limosa, 500 g ai/ha, visual rating after 12 to 14 days, scale 0 to 100 (0 no effect, 100 complete control), read-out: Plant response rating, Ducksalad", "value": 40, "unit": "%"}]}]}
